From patent publication US20060069132A1, “Azolecarboxamide herbicides” (priority 2004, published 2006)

What was measured:
large crabgrass = test: Test B pre-/postemergence herbicide test; type: in vivo, Digitaria sanguinalis
Outline: (§1)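 Formulation: non-phytotoxic solvent mix with surfactant. Timing: preemergence on seed and postemergence on 2–18 cm plants, applied concurrently. Readout after 13–15 d greenhouse: visual 0–100 control rating against controls.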

corn = test: Test B pre-/postemergence herbicide test; type: in vivo, Zea mays
Outline: as §1

barnyardgrass = test: Test B pre-/postemergence herbicide test; type: in vivo, Echinochloa crus-galli
Outline: (§2)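 Test chemicals in a non-phytotoxic solvent mixture with surfactant were applied preemergence to seeded species and postemergence to plants 2-18 cm tall (1- to 4-leaf stage); rice and barnyardgrass were also tested in a flooded paddy at the 2-leaf stage. Visual rating versus controls after 13-15 days in greenhouse, scale 0 (no effect) to 100 (complete control).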

wheat = test: Test B postemergence herbicide test; type: in vivo, Triticum aestivum; parameters: key to Wheat plant response rating: 0 = no effect, 100 = complete control; details: for Wheat plant response rating: postemergence
Outline: (§3)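 Greenhouse test; postemergence application to plants at 1–4 leaves (2–18 cm); paddy species at 2 leaves; evaluated visually vs controls at 13–15 days; scale 0–100 (100 = complete control).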

rice = test: Test B flooded paddy test; type: in vivo, Oryza sativa; details: 1000 g ai/ha, scale 0 to 100 (0 no effect, 100 complete control)
Outline: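 Scale 0–100: zero equals no visible effect, 100 complete control, judged by eye relative to controls. Timing: 13 to 15 days in greenhouse post-treatment. Growth stage at spraying: two leaves (paddy) or one to four leaves, 2–18 cm (postemergence).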

morningglory = test: Test B pre-/postemergence herbicide test; type: in vivo, Ipomoea coccinea
Outline: as §2

pigweed = test: Test B pre-/postemergence herbicide test; type: in vivo, Amaranthus retroflexus
Outline: as §1

blackgrass = test: Test B postemergence herbicide test; type: in vivo, Alopecurus myosuroides
Outline: (§4)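 Paddy species grown to the 2-leaf stage under flooding; blackgrass sprayed postemergence at 2–18 cm (1- to 4-leaf stage). Plants kept in a greenhouse for 13 to 15 days, then visually rated against controls on 0 (no effect) to 100 (complete control).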

velvetleaf = test: Test B pre-/postemergence herbicide test; type: in vivo, Abutilon theophrasti
Outline: as §1

Surinam grass = test: Test B pre-/postemergence herbicide test; type: in vivo, Urochloa decumbens
Outline: as §1

cocklebur = test: Test B pre-/postemergence herbicide test; type: in vivo, Xanthium strumarium
Outline: as §2

[1] = system: small flower umbrella sedge; test: Test B flooded paddy test; type: in vivo, Cyperus difformis; details: 1000 g ai/ha, scale 0 to 100 (0 no effect, 100 complete control)
Outline: as §4

wild oat = test: Test B postemergence herbicide test; type: in vivo, Avena fatua
Outline: as §3

giant foxtail = test: Test B pre-/postemergence herbicide test; type: in vivo, Setaria faberi
Outline: as §1

ducksalad = test: Test B flooded paddy test; type: in vivo, Heteranthera limosa; details: 1000 g ai/ha, scale 0 to 100 (0 no effect, 100 complete control)
Outline: as §4

[2] = Postemergence, 125 g ai/ha, scale 0 (no effect) to 100 (complete control)
[3] = Postemergence, 500 g ai/ha, visual rating after 13 to 15 days, scale 0 (no effect) to 100 (complete control)
[4] = Preemergence, 500 g ai/ha, scale 0 to 100
[5] = preemergence, 125 g ai/ha, 0 to 100 scale, 0 is no effect, 100 is complete control
[6] = 500 g ai/ha, visual rating 0-100, 0 no effect, 100 complete control, preemergence
[7] = postemergence, 125 g ai/ha, visual rating, scale 0 (no effect) to 100 (complete control)
[8] = postemergence, 500 g ai/ha, visual rating, scale 0 (no effect) to 100 (complete control)
[9] = 125 g ai/ha, 0 = no effect, 100 = complete control, preemergence
[10] = 500 g ai/ha, visual rating, 0 = no effect, 100 = complete control, preemergence
[11] = postemergence, 500 g ai/ha, scale 0 to 100, 0 is no effect, 100 is complete control

CCNC(=O)c1cccc(NC(=O)c2cc(C(C)(C)C)nn2CCF)c1 [Compound 35]
Crabgrass, Large plant response rating (large crabgrass; [2]): 20
Plant response rating, Crabgrass, Large (large crabgrass; [3]): 20
Crabgrass, Large plant response rating (large crabgrass; [4]): 90
Corn plant response rating (corn; [4]): 40
Barnyardgrass plant response rating (barnyardgrass; [2]): 10
Plant response rating, Barnyardgrass (barnyardgrass; [3]): 20
Barnyardgrass plant response rating (barnyardgrass; [4]): 100
Plant response rating, Wheat (wheat; [3]): 20
Rice plant response rating (rice; visual rating, 13 to 15 days): 60
Morningglory plant response rating (morningglory; [4]): 10
Plant response rating, Morningglory (morningglory; [5]): 10
Plant response rating, Pigweed (pigweed; [3]): 100
Pigweed plant response rating (pigweed; [4]): 100
Plant response rating, Pigweed (pigweed; [5]): 100
Blackgrass plant response rating (blackgrass; [2]): 20
Plant response rating, Blackgrass (blackgrass; [3]): 30
Plant response rating, Velvetleaf (velvetleaf; [3]): 50
Velvetleaf plant response rating (velvetleaf; [4]): 60
Plant response rating, Velvetleaf (velvetleaf; [5]): 50
Plant response rating, Surinam Grass (Surinam grass; [3]): 40
Surinam Grass plant response rating (Surinam grass; [4]): 80
Plant response rating, Surinam Grass (Surinam grass; [5]): 40
Cocklebur plant response rating (cocklebur; [2]): 50
Plant response rating, Cocklebur (cocklebur; [3]): 100
Cocklebur plant response rating (cocklebur; [4]): 30
Sedge, Umbrella plant response rating ([1]; visual rating, 13 to 15 days): 90
Oat, Wild plant response rating (wild oat; [2]): 0
Plant response rating, Oat, Wild (wild oat; [3]): 10
Foxtail, Giant plant response rating (giant foxtail; [2]): 20
Plant response rating, Foxtail, Giant (giant foxtail; [3]): 20
Foxtail, Giant plant response rating (giant foxtail; [4]): 100
Plant response rating, Foxtail, Giant (giant foxtail; [5]): 80
Ducksalad plant response rating (ducksalad; visual rating, 13 to 15 days): 80

C#CCNC(=O)c1cccc(NC(=O)c2cc(C(C)(C)C)nn2CC)n1 [Compound 147]
Plant response rating, Crabgrass, Large (large crabgrass; [6]): 100
Crabgrass, Large plant response rating (large crabgrass; [7]): 20
Crabgrass, Large plant response rating (large crabgrass; [8]): 70
Plant response rating, Crabgrass, Large (large crabgrass; [5]): 90
Plant response rating, Corn (corn; [6]): 10
Corn plant response rating (corn; [7]): 10
Corn plant response rating (corn; [8]): 30
Plant response rating, Corn (corn; [5]): 10
Plant response rating, Barnyardgrass (barnyardgrass; [6]): 90
Barnyardgrass plant response rating (barnyardgrass; [7]): 20
Barnyardgrass plant response rating (barnyardgrass; [8]): 30
Plant response rating, Barnyardgrass (barnyardgrass; [5]): 70
Wheat plant response rating (wheat; 500 g ai/ha, visual rating, scale 0 (no effect) to 100 (complete control)): 20
Rice plant response rating (rice; visual rating, 13 to 15 days): 50
Plant response rating, Morningglory (morningglory; [6]): 30
Morningglory plant response rating (morningglory; [7]): 0
Morningglory plant response rating (morningglory; [8]): 30
Plant response rating, Morningglory (morningglory; [5]): 0
Plant response rating, Pigweed (pigweed; [6]): 100
Pigweed plant response rating (pigweed; [7]): 80
Pigweed plant response rating (pigweed; [8]): 90
Plant response rating, Pigweed (pigweed; [5]): 100
Blackgrass plant response rating (blackgrass; [7]): 10
Blackgrass plant response rating (blackgrass; [8]): 20
Plant response rating, Velvetleaf (velvetleaf; [6]): 80
Velvetleaf plant response rating (velvetleaf; [7]): 60
Velvetleaf plant response rating (velvetleaf; [8]): 60
Plant response rating, Velvetleaf (velvetleaf; [5]): 30
Plant response rating, Surinam Grass (Surinam grass; [6]): 80
Surinam Grass plant response rating (Surinam grass; [7]): 20
Surinam Grass plant response rating (Surinam grass; [8]): 30
Plant response rating, Surinam Grass (Surinam grass; [5]): 20
Plant response rating, Cocklebur (cocklebur; [6]): 10
Cocklebur plant response rating (cocklebur; [7]): 0
Cocklebur plant response rating (cocklebur; [8]): 80
Plant response rating, Cocklebur (cocklebur; [5]): 0
Sedge, Umbrella plant response rating ([1]; visual rating, 13 to 15 days): 90
Oat, Wild plant response rating (wild oat; [7]): 0
Oat, Wild plant response rating (wild oat; [8]): 30
Plant response rating, Foxtail, Giant (giant foxtail; [6]): 100
Foxtail, Giant plant response rating (giant foxtail; [7]): 30
Foxtail, Giant plant response rating (giant foxtail; [8]): 40
Plant response rating, Foxtail, Giant (giant foxtail; [5]): 70
Ducksalad plant response rating (ducksalad; visual rating, 13 to 15 days): 80

CCn1nc(C(C)(C)C)cc1C(=O)Nc1nc(C(=O)N2CC=CC2)ccc1F [Compound 281]
Crabgrass, Large plant response rating (0 to 100 scale) (large crabgrass; [9]): 10
Plant response rating, Crabgrass, Large (large crabgrass; [10]): 70
Crabgrass, Large plant response rating (large crabgrass; [7]): 10
Crabgrass, Large plant response rating (large crabgrass; [11]): 10
Corn plant response rating (0 to 100 scale) (corn; [9]): 0
Plant response rating, Corn (corn; [10]): 0
Corn plant response rating (corn; [7]): 0
Corn plant response rating (corn; [11]): 10
Barnyardgrass plant response rating (0 to 100 scale) (barnyardgrass; [9]): 20
Plant response rating, Barnyardgrass (barnyardgrass; [10]): 90
Barnyardgrass plant response rating (barnyardgrass; [7]): 0
Barnyardgrass plant response rating (barnyardgrass; [11]): 0
Wheat plant response rating (wheat; 125 g ai/ha, visual rating, scale 0 (no effect) to 100 (complete control)): 30
Wheat plant response rating (wheat; 500 g ai/ha, scale 0 to 100, 0 is no effect, 100 is complete control): 30
Rice plant response rating (rice): 70
Morningglory plant response rating (0 to 100 scale) (morningglory; [9]): 0
Plant response rating, Morningglory (morningglory; [10]): 20
Morningglory plant response rating (morningglory; [7]): 0
Morningglory plant response rating (morningglory; [11]): 10
Pigweed plant response rating (0 to 100 scale) (pigweed; [9]): 100
Plant response rating, Pigweed (pigweed; [10]): 100
Pigweed plant response rating (pigweed; [7]): 20
Pigweed plant response rating (pigweed; [11]): 30
Blackgrass plant response rating (blackgrass; [7]): 20
Blackgrass plant response rating (blackgrass; [11]): 30
Velvetleaf plant response rating (0 to 100 scale) (velvetleaf; [9]): 10
Plant response rating, Velvetleaf (velvetleaf; [10]): 70
Velvetleaf plant response rating (velvetleaf; [7]): 0
Velvetleaf plant response rating (velvetleaf; [11]): 20
Surinam Grass plant response rating (0 to 100 scale) (Surinam grass; [9]): 10
Plant response rating, Surinam Grass (Surinam grass; [10]): 40
Surinam Grass plant response rating (Surinam grass; [7]): 10
Surinam Grass plant response rating (Surinam grass; [11]): 20
Cocklebur plant response rating (0 to 100 scale) (cocklebur; [9]): 0
Plant response rating, Cocklebur (cocklebur; [10]): 0
Cocklebur plant response rating (cocklebur; [7]): 20
Cocklebur plant response rating (cocklebur; [11]): 20
Sedge, Umbrella plant response rating [1]: 70
Oat, Wild plant response rating (wild oat; [7]): 10
Oat, Wild plant response rating (wild oat; [11]): 20
Foxtail, Giant plant response rating (0 to 100 scale) (giant foxtail; [9]): 10
Plant response rating, Foxtail, Giant (giant foxtail; [10]): 60
Foxtail, Giant plant response rating (giant foxtail; [7]): 10
Foxtail, Giant plant response rating (giant foxtail; [11]): 10
Ducksalad plant response rating (ducksalad): 80
